Here are results for 42 molecules from the Deep4Chem optical property database.

The structures appear in SMILES notation.

A short description of the series: solvent given as SMILES.

Turning to `COc1ccc2c(c1)c1cc(OC)ccc1c1c2c2c(C(=O)NC(C)(C)C)ccc(C(=O)NC(C)(C)C)c2c2c3ccc(OC)cc3c3cc(OC)ccc3c21`, the emission maximum (in ClCCl) came to 498 nm.
Molecule `c1ccc(-c2c3ccccc3c(-c3ccc(-c4cccnc4)cc3)c3ccccc23)cc1` came in with an emission maximum (in ClCCl) of 417 nm.
With `CCCN(c1ccccc1)c1ccc2c(c1)C(CC)(CC)c1cc(/C=C/c3ccc(/C=C(\C#N)C(=O)O)s3)ccc1-2`, the emission maximum runs as follows: (in C1CCOC1) 572 nm; (in C1COCCO1) 617 nm; (in CC#N) 531 nm; (in CC(C)=O) 575 nm; (in CCOC(C)=O) 552 nm; (in CN(C)C=O) 593 nm. Moreover, the emission maximum (in CS(C)=O) was 514 nm and the emission maximum (in ClCCl) was determined as 600 nm.
On to `O=C1c2ccccc2-c2c(-c3cc(Cl)ccc3O)[nH]c(=O)n21`, for which the emission maximum by setting is: (in CC#N) 475 nm; (in CO) 493 nm; (in ClCCl) 475 nm.
Molecule `CCCCCCCCC1(CCCCCCCC)c2cc3c(cc2-c2sc(-c4ccc(/C=C5\SC(N6CCCCC6)=NC5=O)c5nsnc45)cc21)C(CCCCCCCC)(CCCCCCCC)c1cc(-c2ccc(/C=C4\SC(N5CCCCC5)=NC4=O)c4nsnc24)sc1-3` came in with an emission maximum (in ClC(Cl)Cl) of 675 nm.
Regarding `CN(C)c1cc(-c2ccc(C#Cc3ccccc3)cc2)cc2ccccc12`, the emission maximum (in CC#N) is listed as 500.89 nm, the emission maximum (in CCO) amounted to 471.6 nm and the emission maximum (in ClCCl) is given as 470 nm.
With `CN(C)c1cc2c(cc1F)c(=O)c1cc(F)c(N)cc1n2C`, the emission maximum (in CCO) is given as 432 nm.
Regarding `C1=[N+](c2ccccc2)[B-](c2ccccc2)(c2ccccc2)Oc2c1ccc1c3c(ccc21)C=[N+](c1ccccc1)[B-](c1ccccc1)(c1ccccc1)O3`, the emission maximum (in Cc1ccccc1) is 602 nm and the emission maximum (in ClCCl) is 594 nm.
In turn, `c1ccc2[nH]c(-c3ccc(-c4ccc(-c5ccc(-c6nc7ccccc7[nH]6)cc5)cc4)cc3)nc2c1` showed an emission maximum (in CN(C)C=O) of 409 nm.
As to `CCCCOc1cc(C=C2c3ccccc3-c3ccccc32)c(OCCCC)cc1C=C1c2ccccc2C=Cc2ccccc21`, the emission maximum (in C1CCOC1) is recorded as 472 nm.
Molecule `CN(C)CCN(Cc1c2ccccc2cc2ccccc12)c1ccc([N+](=O)[O-])cc1[N+](=O)[O-]` came in with an emission maximum (in C1CCCCC1) of 391 nm; an emission maximum (in C1CCOC1) of 394 nm; an emission maximum (in CC#N) of 394 nm; an emission maximum (in CC(C)=O) of 393 nm; an emission maximum (in CCO) of 394 nm; an emission maximum (in CN(C)C=O) of 396 nm. For the same molecule, the emission maximum is given as 392 nm (in CO), 398 nm (in CS(C)=O), 394 nm (in ClC(Cl)Cl) and 393 nm (in ClCCl).
On to `Cc1ccc(/N=C2/C3=c4[nH]c5ccccc5c4=[N+](c4ccc(C)cc4)[B-](F)(F)N3c3ccccc32)cc1`, for which the emission maximum (in ClCCl) turned out to be 756 nm.
On the same count and under the same terms, the same measure for `CCCCOc1c(Br)cc2cc(Br)c(OCCCC)c3c4c(OCCCC)c(Br)cc5cc(Br)c(OCCCC)c(c1c23)c54`: 489 nm.
Under “in C1COCCO1”, `CCC12C(=C3C(=C4c5ccc(-c6ccc(CO)cc6)cc5S(=O)(=O)C41CC)C(F)(F)C(F)(F)C3(F)F)c1ccc(-c3ccc(CO)cc3)cc1S2(=O)=O` (stereo unspecified) showed an emission maximum of 538.57 nm.
Molecule `CC(C)(C)n1c(=O)c2cc3ccc4cccc5ccc(c2c1=O)c3c45` showed an emission maximum (in ClC(Cl)Cl) of 451 nm.
Turning to `CC[Si](CC)(CC)c1cc2ccc3cccc4ccc(c1C(=O)NC(C)(C)C)c2c34`, the emission maximum (in ClC(Cl)Cl) is on record as 383 nm.
`CN(C)c1cc(-c2ccccc2)cc2ccccc12` had an emission maximum (in ClCCl) of 422 nm.
Regarding `CCC1(CC)c2cc(/C=C/c3ccc(/C=C/c4ccc5c(c4)C(CC)(CC)c4cc(N6c7ccccc7Sc7ccccc76)ccc4-5)cc3)ccc2-c2ccc(N3c4ccccc4Sc4ccccc43)cc21`, the emission maximum is, setting by setting: (in C1CCOC1) 434 nm; (in CC#N) 457 nm; (in CCCCCC) 455 nm; (in Cc1ccccc1) 462 nm; (in ClCCl) 435 nm.
In the case of `O=C1/C(=C2\Sc3ccc(S(=O)(=O)O)cc3C2=O)Sc2ccc(S(=O)(=O)O)cc21`, the emission maximum (in C1COCCO1) stood at 587 nm; the emission maximum (in CN(C)C=O) is 613 nm; the emission maximum (in CO) was 629 nm; the emission maximum (in CS(C)=O) is listed as 629 nm; the emission maximum (in O) came to 644 nm.
Consider `N#CSC1=CC2=C(c3ccccc3)c3ccc(SC#N)n3[B-](F)(F)[N+]2=C1N1CCOCC1`, for which the emission maximum by setting is: (in CC#N) 585 nm; (in CCCCCC) 588 nm; (in CCOC(C)=O) 589 nm; (in CO) 583 nm; (in ClCCl) 594 nm.
As to `O=C1c2cccc3cc(C#CC#Cc4cc5c6c(cccc6c4)C(=O)N(c4ccccc4)C5=O)cc(c23)C(=O)N1c1ccccc1`, under “in ClCCl”, the emission maximum was 421 nm.
On to `CCOC(=O)CCCn1c(C(=O)OC)c(C)c2c(=O)n3c(cc21)C(CC)=C(C)C3=O`, for which the emission maximum was 434 nm (in C1CCCCC1); 499 nm (in CO); 481 nm (in CS(C)=O); 456 nm (in ClC(Cl)Cl); 446 nm (in c1ccccc1).
Consider `C=CCNc1ccc2ccc3oc4cc(=[N+]5CCCC5)ccc-4nc3c2c1`, for which the emission maximum (in CC#N) is on record as 635 nm, the emission maximum (in CCO) was determined as 632 nm, the emission maximum (in ClCCl) is reported as 622 nm and the emission maximum (in O) is recorded as 650 nm.
As to `Nc1ccc(/C=C/c2ccccc2)cc1`, the emission maximum worked out at 423 nm (in CC#N) and 380 nm (in CCCCCC).
Consider `CCCCCCCCCCCCN1C(=O)c2c(c3ccc4cc(-c5ccc(C)cc5)c(OC)cc4c3c3c2ccc2cc(-c4ccc(C)cc4)c(OC)cc23)C1=O`, for which the emission maximum (in ClCCl) is reported as 529 nm.
Take `Clc1nc(Cl)nc(Nc2ccc3c4cccc5cccc(c6cccc2c63)c54)n1`: the emission maximum by setting is: (in C1COCCO1) 472 nm; (in CC#N) 475 nm; (in CCCCOCCCC) 475 nm; (in CCOC(C)=O) 469 nm.
`c1cc2cccc3c4cccc5cccc(c(c1)c23)c54` returned an emission maximum (in C1CCCCC1) of 438.4 nm, an emission maximum (in ClC(Cl)Cl) of 443 nm and an emission maximum (in ClCCl) of 448 nm.
On to `CNC1=C2C=CC=[N+]2[B-](F)(F)n2cccc21`, for which the emission maximum came to 463 nm (in C1CCCCC1); 441.5 nm (in CC(C)=O); 439 nm (in CCO); 444.5 nm (in CCOC(C)=O); 440 nm (in CO); 449 nm (in OCC(F)(F)F).
In turn, `O=C1O/C(=C\c2cccs2)c2ccccc21` had an emission maximum (in CC#N) of 438 nm.
In the case of `COc1ccc(C2=C3C=c4c(oc5cc6c(cc45)[C@H]4CC[C@]5(C)C(=O)CC[C@H]5[C@@H]4CC6)=[N+]3[B-](F)(F)n3c2cc2c4cc5c(cc4oc23)CC[C@@H]2[C@@H]5CC[C@]3(C)C(=O)CC[C@@H]23)cc1`, the emission maximum is 615 nm (in CCOC(C)=O), 611.5 nm (in CCOCC) and 613.5 nm (in CO).
`CCCCC(CC)CN1C(=O)c2cc(Oc3ccc(C(C)(C)C)cc3)c3c4c(Oc5ccc(OC)cc5)cc5c6c(cc(Oc7ccc(OC)cc7)c(c7c(Oc8ccc(C(C)(C)C)cc8)cc(c2c37)C1=O)c64)C(=O)N(c1c(C(C)C)cccc1C(C)C)C5=O` (stereo unspecified) registered an emission maximum (in Cc1ccccc1) of 608 nm.
Turning to `Cc1cc(C)c(B(c2c(C)cc(C)cc2C)N2c3ccccc3C(c3ccccc3)(c3ccccc3)c3ccccc32)c(C)c1`, the emission maximum is 522 nm (in C1CCCCC1), 537 nm (in Cc1ccccc1) and 558 nm (in ClCCl).
In turn, `N#Cc1ccc(-c2cnc3cccc(-c4ccccc4)n23)cc1` gave an emission maximum (in ClCCl) of 457 nm.
In the case of `COc1cc2c3cc(OC)c(OC)cc3c3cc4c(C)cc(=O)oc4cc3c2cc1OC`, the emission maximum reads like this: (in C1CCOC1) 489 nm; (in CO) 556 nm; (in CS(C)=O) 519 nm; (in Cc1ccccc1) 463 nm; (in ClC(Cl)Cl) 491 nm.
For `C[C@]12C(=O)NC(=O)N([C@H]3CC(O)[C@@H](CO)O3)[C@H]1[C@H]1Oc3cc4oc(=O)ccc4cc3[C@H]12` (stereo partly specified), the emission maximum runs as follows: (in CC(C)O) 428 nm; (in CCO) 432 nm; (in CCOCC) 410 nm; (in CO) 446 nm; (in O) 465 nm.
`Ic1ccc(-c2c3ccc(=[N+]4CCCCC4)cc-3oc3cc(N4CCCCC4)ccc23)cc1`: the emission maximum (in CCO) is given as 592 nm and the emission maximum (in ClCCl) is 590 nm.
As to `COC(=O)c1cccc2c1C#Cc1c(N)cccc1OCCCO2`, the emission maximum reads like this: (in CC#N) 487 nm; (in ClCCl) 453 nm.
In the case of `c1ccc(-c2nn(-c3ccccc3)c3nc4ccc(N(c5ccccc5)c5cccc6ccccc56)cc4cc23)cc1`, the emission maximum reads like this: (in C1CCCCC1) 484.73 nm; (in C1CCOC1) 516 nm; (in CC#N) 555.25 nm; (in CC(C)=O) 538.21 nm; (in CCCCCl) 509.68 nm; (in CCCCOCCCC) 494.8 nm. Where the note is “in CN(C)C=O”, this molecule had an emission maximum of 553.1 nm.
For the molecule `C[N+]1=c2cc3c(cc2C(C)(C)CC1)=C(c1ccccc1C(=O)O)c1cc2c(cc1O3)Oc1cc3c(cc1=C2c1ccccc1C(=O)O)C(C)(C)CC[N+]=3C`, for the setting “in ClC(Cl)Cl”, the emission maximum is given as 612 nm.
The molecule `Nc1ccc2c(c1)C(=O)c1ccccc1-2` registered an emission maximum (in C1CCCCC1) of 569 nm and an emission maximum (in c1ccccc1) of 622 nm.
In the case of `Cc1cc(C)c(C)c(-c2ccc3cc(C)c(=O)oc3c2)c1C`, the emission maximum was determined as 383 nm (in C1CCCCC1), 388 nm (in CC#N) and 394 nm (in CO).
As to `Cc1cc(C)c(-c2cc3c(s2)-c2sc(-c4c(C)cc(C)cc4C)cc2P(c2ccccc2)(c2ccccc2)=[O+][B-]3(c2c(C)cc(C)cc2C)c2c(C)cc(C)cc2C)c(C)c1`, the emission maximum (in C1CCOC1) came to 472 nm.
